Experimental data taken from ChEMBL document CHEMBL5325471, “Identification of new modulator of DNA repairing pathways based on natural product (±)-peharmaline A” (Bioorg Med Chem, 2023).
pIC50: −log10 of the molar value. Calls of active or inactive are those of the source. The rule behind the calls is not given here.

Assays:
HCT-116 [1] = assay: Inhibition of DNA repairing pathway in human HCT-116 cells assessed as downregulation of Rad51 protein expression at 0.25 to 2 uM incubated for 24 hrs by immunoblotting analysis; assay type: functional, cell-based; settings: dose 0.25-2 µM
HCT-116 [2] = assay: Inhibition of epithelial-to-mesenchymal transition in human HCT-116 cells assessed as upregulation of E-cadherin protein expression by immunoblot analysis; assay type: functional, cell-based
HCT-116 [3] = assay: Inhibition of epithelial-to-mesenchymal transition in human HCT-116 cells assessed as reduction in VEGF-induced cell scattering incubated for 48 hrs by inverted microscopic analysis; assay type: functional, cell-based
HCT-116 [4] = assay: Inhibition of DNA repairing pathway in human HCT-116 cells assessed as increase in p-Chk2 level at 0.25 to 2 uM incubated for 24 hrs by immunoblotting analysis; assay type: functional, cell-based; settings: dose 0.25-2 µM
[5] = Tmax in BALB/c mouse at 20 mg/kg, ip measured upto 24 hrs by LC-MS/MS analysis; assay type: ADME, organism-based; settings: in vivo
HCT-116 [6] = assay: Inhibition of DNA repairing pathway in human HCT-116 cells assessed as downregulation of XRCC11 protein expression at 0.25 to 2 uM incubated for 24 hrs by immunoblotting analysis; assay type: functional, cell-based; settings: dose 0.25-2 µM
HCT-116 [7] = assay: Inhibition of epithelial-to-mesenchymal transition in human HCT-116 cells assessed as downregulation of Twist-1 protein expression by immunoblot analysis; assay type: functional, cell-based
HCT-116 [8] = assay: Induction of DNA damage in human HCT-116 cell assessed as increase in olive tail moment at 4 uM incubated for 24 hrs by EtBr-based alkaline Comet assay (Rvb= 0.26%); assay type: functional
HCT-116 [9] = assay: Induction of DNA damage in human HCT-116 cell assessed as comet tail formation at 4 uM incubated for 24 hrs by EtBr-based alkaline Comet assay (Rvb= 2.99 %); assay type: functional
HCT-116 [10] = assay: Inhibition of DNA repairing pathway in human HCT-116 cells assessed as increase in gamma-H2AX level at 0.25 to 2 uM incubated for 24 hrs by immunoblotting analysis; assay type: functional, cell-based; settings: dose 0.25-2 µM
HCT-116 [11] = assay: Induction of DNA damage in human HCT-116 cell assessed as comet tail formation at 2 uM incubated for 24 hrs by EtBr-based alkaline Comet assay (Rvb= 2.99 %); assay type: functional
[12] = Toxicity in BALB/c mouse implanted with mouse 4T1 cells at 20 mg/kg, ip administered every alternate day for 2 weeks; assay type: organism-based; settings: in vivo, 336 h
HCT-116 [13] = assay: Inhibition of DNA repairing pathway in human HCT-116 cells assessed as downregulation of MRE11 protein expression at 0.25 to 2 uM incubated for 24 hrs by immunoblotting analysis; assay type: functional, cell-based; settings: dose 0.25-2 µM
HCT-116 [14] = assay: Induction of DNA damage in human HCT-116 cell assessed as comet tail formation at 1 uM incubated for 24 hrs by EtBr-based alkaline Comet assay (Rvb= 2.99 %); assay type: functional
[15] = Elimination half life in BALB/c mouse at 20 mg/kg, ip measured upto 24 hrs by LC-MS/MS analysis; assay type: ADME, organism-based; settings: in vivo, read-out: beta t1/2 (converted)
[16] = Cytotoxicity against human fR2 cells assessed as cell growth inhibition incubated for 44 hrs by MTT assay; assay type: toxicity, cell-based
HCT-116 [17] = assay: Induction of cell cycle arrest in human HCT-116 cells assessed as accumulation of cells at G2 phase at 1 uM incubated for 24 hrs by RNase/PI staining-based FACS flow cytometry analysis (reference value: 33 %); assay type: functional
HCT-116 [18] = assay: Induction of DNA damage in human HCT-116 cells assessed as increase in phosphorylated gamma-H2AX foci formation at 0.5 to 2 uM incubated for 24 hrs by DAPI staining based immunofluorescence analysis; assay type: functional, cell-based; settings: dose 0.5-2 µM
A549 = assay: Antiproliferative activity against human A549 cells assessed as cell growth inhibition incubated for 44 hrs by MTT assay; assay type: functional, cell-based; settings: A549, 44 h
HCT-116 [19] = assay: Induction of DNA damage in human HCT-116 cell assessed as comet tail formation at 0.5 uM incubated for 24 hrs by EtBr-based alkaline Comet assay (Rvb= 2.99 %); assay type: functional
4T1 [20] = assay: Antitumor activity against mouse 4T1 cells implanted in BALB/c mouse assessed as reduction in tumor weight at 20 mg/kg, ip administered every alternate day for 2 weeks relative to control; assay type: functional; set-up: scale not given: the % may be the effect or the level left
HCT-116 [21] = assay: Induction of DNA damage in human HCT-116 cell assessed as increase in olive tail moment at 2 uM incubated for 24 hrs by EtBr-based alkaline Comet assay (Rvb= 0.26%); assay type: functional
HCT-116 [22] = assay: Inhibition of DNA repairing pathway in human HCT-116 cells assessed as increase in cleaved PARP level at 0.25 to 2 uM incubated for 24 hrs by immunoblotting analysis; assay type: functional, cell-based; settings: dose 0.25-2 µM
HCT-116 [23] = assay: Induction of cell cycle arrest in human HCT-116 cells assessed as accumulation of cells at S phase at 1 uM incubated for 24 hrs by RNase/PI staining-based FACS flow cytometry analysis (reference value: 11 %); assay type: functional
4T1 [24] = assay: Antitumor activity against mouse 4T1 cells implanted in BALB/c mouse assessed as reduction in tumor volume at 20 mg/kg, ip administered every alternate day for 2 weeks relative to control; assay type: functional; set-up: scale not given: the % may be the effect or the level left
[25] = AUC (0 to infinity) in BALB/c mouse at 20 mg/kg, ip measured upto 24 hrs by LC-MS/MS analysis; assay type: ADME, organism-based; set-up: dose 20 mg/kg, time < 24 hrs, route ip; settings: in vivo
HCT-116 [26] = assay: Induction of DNA damage in human HCT-116 cells assessed as micronuclei formation at 0.5 to 2 uM incubated for 24 hrs by DAPI staining based immunofluorescence analysis; assay type: functional, cell-based; settings: dose 0.5-2 µM
HCT-116 [27] = assay: Induction of DNA double-strand breaks in human HCT-116 cells assessed as increase in gammaH2AX accumulation at 0.25 to 2 uM incubated for 24 hrs by immunoblotting analysis; assay type: functional, cell-based; settings: dose 0.25-2 µM
HCT-116 [28] = assay: Induction of cell cycle arrest in human HCT-116 cells assessed as accumulation of cells at G1 phase at 0.5 uM incubated for 24 hrs by RNase/PI staining-based FACS flow cytometry analysis (reference value: 51 %); assay type: functional
HCT-116 [29] = assay: Induction of cell cycle arrest in human HCT-116 cells assessed as accumulation of cells at G1 phase at 1 uM incubated for 24 hrs by RNase/PI staining-based FACS flow cytometry analysis (reference value: 51 %); assay type: functional
HCT-116 [30] = assay: Induction of DNA damage in human HCT-116 cell assessed as increase in olive tail moment at 1 uM incubated for 24 hrs by EtBr-based alkaline Comet assay (Rvb= 0.26%); assay type: functional
HCT-116 [31] = assay: Antiproliferative activity against human HCT-116 cells assessed as cell growth inhibition incubated for 44 hrs by MTT assay; assay type: functional, cell-based; settings: HCT-116, 44 h
HCT-116 [32] = assay: Inhibition of DNA repairing pathway in human HCT-116 cells assessed as downregulation of H2AX protein expression at 0.25 to 2 uM incubated for 24 hrs by immunoblotting analysis; assay type: functional, cell-based; settings: dose 0.25-2 µM
[33] = Volume of distribution in BALB/c mouse at 20 mg/kg, ip measured upto 24 hrs by LC-MS/MS analysis; assay type: ADME, organism-based; settings: in vivo
HCT-116 [34] = assay: Induction of cell cycle arrest in human HCT-116 cells assessed as accumulation of cells at G2 phase at 0.5 uM incubated for 24 hrs by RNase/PI staining-based FACS flow cytometry analysis (reference value: 33 %); assay type: functional

Tmax [5]: 0.8 h
half-life [15]: 1.6 h
pIC50 (A549): 5.77
AUC(0-inf) [25]: 11200 ng·h/mL
pIC50 (HCT-116 [31]): 5.99
Vd [33]: 4.4 L/kg
SMILES: COC(=O)[C@]1([C@H]2CCn3c2nc2ccccc2c3=O)NCCc2c1[nH]c1ccccc21 (racemic)
inhibition (HCT-116 [1]): Active
inhibition (HCT-116 [2]): Active
inhibition (HCT-116 [3]): Active
inhibition (HCT-116 [4]): Active
inhibition (HCT-116 [6]): Active
inhibition (HCT-116 [7]): Active
Activity (HCT-116 [8]): 24.72%
Activity (HCT-116 [9]): 61.4%
inhibition (HCT-116 [10]): Active
Activity (HCT-116 [11]): 51.03%
Activity [12]: Non-Toxic
inhibition (HCT-116 [13]): Active
Activity (HCT-116 [14]): 48%
IC50 at 44 h [16]: 19700 nM
Activity (HCT-116 [17]): 17%
Activity (HCT-116 [18]): Active
Activity (HCT-116 [19]): 31.99%
Activity (4T1 [20]): 63%
Activity (HCT-116 [21]): 14.05%
inhibition (HCT-116 [22]): Active
Activity (HCT-116 [23]): 7%
Activity (4T1 [24]): 89.3%
Activity (HCT-116 [26]): Active
Activity (HCT-116 [27]): Active
Activity (HCT-116 [28]): 66%
Activity (HCT-116 [29]): 71%
Activity (HCT-116 [30]): 9.53%
inhibition (HCT-116 [32]): Active
Activity (HCT-116 [34]): 24%
